Assay results as given in patent publication US20260200927A1, “NON PEPTIDERGIC AGONISTS OF OXYTOCIN RECEPTOR” (UNIVERSITE DE STRASBOURG, priority 2022, published 2026).

Tests used:
[1] = target: V1A-R (Homo sapiens, UniProt P37288); experiment: V1A receptor antagonism measured as calcium signal; format: cell-based; details: antagonist, n = 3, read-out: V1A-R (Antago) IC50
[2] = target: T1, oxytocin receptor (Homo sapiens, UniProt P30559); experiment: IP-One IP1 accumulation assay in CHO cell lines expressing oxytocin receptor (agonism); format: cell-based; details: CHO cells expressing oxytocin receptor, n = 3, read-out: OT-R EC50
T1 construct: expressed in transfected cells; host or cells: CHO cell lines
T1 sequence (P30559 1-389): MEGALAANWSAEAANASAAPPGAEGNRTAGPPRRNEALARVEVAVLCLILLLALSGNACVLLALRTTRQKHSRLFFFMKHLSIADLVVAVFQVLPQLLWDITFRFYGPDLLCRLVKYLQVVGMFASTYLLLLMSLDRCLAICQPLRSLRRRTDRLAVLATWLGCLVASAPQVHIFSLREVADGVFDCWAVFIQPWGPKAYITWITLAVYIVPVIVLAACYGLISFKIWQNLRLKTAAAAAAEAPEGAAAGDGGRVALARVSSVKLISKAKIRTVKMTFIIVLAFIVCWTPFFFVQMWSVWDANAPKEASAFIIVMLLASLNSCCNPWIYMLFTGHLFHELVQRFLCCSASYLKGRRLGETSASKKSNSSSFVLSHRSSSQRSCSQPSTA
Method: The activation constants (EC50 in nM) were measured in CHO cell lines expressing oxytocin receptor by IP-One IP1 accumulation assay. These values are the mean±SEM of at least three separate experiments performed in triplicate.

[3] = cited from earlier work

Sequence of V1A-R (P37288 whole entry, species assumed): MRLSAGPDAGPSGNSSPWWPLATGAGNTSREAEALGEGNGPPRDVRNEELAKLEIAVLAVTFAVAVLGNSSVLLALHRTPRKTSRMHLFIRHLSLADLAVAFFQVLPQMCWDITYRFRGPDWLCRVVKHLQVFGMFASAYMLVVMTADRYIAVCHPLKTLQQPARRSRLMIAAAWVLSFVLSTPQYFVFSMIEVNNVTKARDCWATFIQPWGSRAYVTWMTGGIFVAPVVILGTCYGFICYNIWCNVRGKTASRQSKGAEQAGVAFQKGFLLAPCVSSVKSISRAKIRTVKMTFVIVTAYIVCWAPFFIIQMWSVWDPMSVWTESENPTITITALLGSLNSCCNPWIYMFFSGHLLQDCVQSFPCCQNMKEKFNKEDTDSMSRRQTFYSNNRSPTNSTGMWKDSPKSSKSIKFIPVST

Row | SMILES | EC50 [2] | also measured
1 | Cc1cc(C(=O)N2Cc3cnn(C)c3Nc3ccccc32)ccc1CNC(=O)N1C[C@H](F)C[C@H]1C(=S)N(C)C [Compound 1] | – | IC50 [1]: 250 nM
2 | CO[C@@H]1C[C@@H](C(=S)N(C)C)N(C(=O)NCc2ccc(C(=O)N3Cc4cnn(C)c4Nc4ccccc43)cc2C)C1 [Compound 3] | 33 nM | –
3 | Cc1cc(C(=O)N2Cc3cnn(C)c3Nc3ccccc32)ccc1CNC(=O)N1C[C@H](OCCCO)C[C@H]1C(=S)N(C)C [Compound 6, (2S,4R)-2-(dimethylcarbamothioyl)-4-(3-hydroxypropoxy)-N-[(2-methyl-4-4-methyl-2,4,5,9-tetraazatricyclo[8.4.0.0,3,7]tetradeca-1(14),3(7),5,10,12-pentaene-9-carbonylphenyl)methyl]pyrrolidine-1-carboxamide] | 29.8 nM | –
4 | Cc1cc(C(=O)N2Cc3cnn(C)c3Nc3ccccc32)ccc1CNC(=O)N1C[C@H](OCCCCO)C[C@H]1C(=S)N(C)C [Compound 7, (2S,4R)-2-(dimethylcarbamothioyl)-4-(4-hydroxybutoxy)-N-[(2-methyl-4-4-methyl-2,4,5,9-tetraazatricyclo[8.4.0.0,3,7]tetradeca-1(14),3(7),5,10,12-pentaene-9-carbonylphenyl)methyl]pyrrolidine-1-carboxamide] | 11.6 nM | –
5 | Cc1cc(C(=O)N2Cc3cnn(C)c3Nc3ccccc32)ccc1CNC(=O)N1C[C@H](OCc2cccc(S(N)(=O)=O)c2)C[C@H]1C(=S)N(C)C [Compound 13, (2S,4R)-2-(dimethylcarbamothioyl)-N-[(2-methyl-4-4-methyl-2,4,5,9-tetraazatricyclo[8.4.0.0,3,7]tetradeca-1(14),3(7),5,10,12-pentaene-9-carbonylphenyl)methyl]-4-[(3-sulfamoylphenyl)methoxy]pyrrolidine-1-carboxamide] | 33 nM | –
6 | Cc1cc(C(=O)N2Cc3cnn(C)c3Nc3ccccc32)ccc1CNC(=O)N1C[C@H](OCc2nnn[nH]2)C[C@H]1C(=S)N(C)C [Compound 19, (2S,4R)-2-(dimethylcarbamothioyl)-N-[(2-methyl-4-4-methyl-2,4,5,9-tetraazatricyclo[8.4.0.0,3,7]tetradeca-1(14),3(7),5,10,12-pentaene-9-carbonylphenyl)methyl]-4-[(1H-1,2,3,4-tetrazol-5-yl)methoxy]pyrrolidine-1-carboxamide] | 17.4 nM | –
7 | Cc1cc(C(=O)N2Cc3cnn(C)c3Nc3ccccc32)ccc1CNC(=O)N1CC(OCCC2NC(=O)NC2=O)CC1C(=S)N(C)C [Compound 21, (2S,4R)-2-(dimethylcarbamothioyl)-4-[2-(2,5-dioxoimidazolidin-4-yl)ethoxy]-N-[(2-methyl-4-4-methyl-2,4,5,9-tetraazatricyclo[8.4.0.0,3,7]tetradeca-1(14),3(7),5,10,12-pentaene-9-carbonylphenyl)methyl]pyrrolidine-1-carboxamide] | 14.4 nM | –
8 | CC[C@H](C)[C@@H]1NC(=O)[C@H](Cc2ccc(O)cc2)NC(=O)[C@@H](N)CSSC[C@@H](C(=O)N2CCC[C@H]2C(=O)N[C@@H](CC(C)C)C(=O)NCC(N)=O)NC(=O)[C@H](CC(N)=O)NC(=O)[C@H](CCC(N)=O)NC1=O [OT] | – | half-life in blood [3]: about 3 minute
